Measurements as given in article PMC7587962, “Evaluation of Cytotoxicity and α-Glucosidase Inhibitory Activity of Amide and Polyamino-Derivatives of Lupane Triterpenoids” (Molecules, 2020).

How the values were obtained:
HL-60(TB) = assay: NCI-60 SRB screen: leukemia HL-60(TB); assay type: cell-based; conditions: Homo sapiens, HL-60, 48 h
KM12 = assay: NCI-60 SRB screen: colon cancer KM12; assay type: cell-based, human
OVCAR-8 = assay: NCI-60 SRB screen: ovarian cancer OVCAR-8; assay type: cell-based, human
SK-OV-3 = assay: NCI-60 SRB screen: ovarian cancer SK-OV-3; assay type: cell-based, human
NSCL cancer subpanel = assay: NCI-60 screen, subpanel NSCL cancer
HCT-15 = assay: NCI-60 SRB screen: colon cancer HCT-15; assay type: cell-based, human
[1] = test system: 60 human tumor cell lines; conditions: single dose 10 µM
CNS cancer subpanel = assay: NCI-60 screen, subpanel CNS cancer
HS 578T = assay: NCI-60 SRB screen: breast cancer HS 578T; assay type: cell-based, human
MDA-MB-468 = assay: NCI-60 SRB screen: breast cancer MDA-MB-468; assay type: cell-based, human; conditions: for GI50: five concentrations, 48 h, SRB
Breast cancer subpanel = assay: NCI-60 screen, subpanel Breast cancer
MCF7 = assay: NCI-60 SRB screen: breast cancer MCF7; assay type: cell-based; conditions: Homo sapiens, MCF7, 48 h
HT29 = assay: NCI-60 SRB screen: colon cancer HT29; assay type: cell-based; conditions: Homo sapiens, HT-29, 48 h
Colon Cancer subpanel = assay: NCI-60 screen, subpanel Colon Cancer
SR = assay: NCI-60 SRB screen: leukemia SR; assay type: cell-based; conditions: Homo sapiens, 48 h
SNB-19 = assay: NCI-60 SRB screen: CNS cancer SNB-19; assay type: cell-based, human
IGROV1 = assay: NCI-60 SRB screen: ovarian cancer IGROV1; assay type: cell-based, human
SF-268 = assay: NCI-60 SRB screen: CNS cancer SF-268; assay type: cell-based, human
NCI-H322M = assay: NCI-60 SRB screen: non-small cell lung cancer NCI-H322M; assay type: cell-based, human
UACC-257 = assay: NCI-60 SRB screen: melanoma UACC-257; assay type: cell-based, human
NCI-H460 = assay: NCI-60 SRB screen: non-small cell lung cancer NCI-H460; assay type: cell-based; conditions: Homo sapiens, NCI-H460, 48 h
SK-MEL-2 = assay: NCI-60 SRB screen: melanoma SK-MEL-2; assay type: cell-based, human
SF-295 = assay: NCI-60 SRB screen: CNS cancer SF-295; assay type: cell-based, human
COLO 205 = assay: NCI-60 SRB screen: colon cancer COLO 205; assay type: cell-based, human
M14 = assay: NCI-60 SRB screen: melanoma M14; assay type: cell-based, human
BT-549 = assay: NCI-60 SRB screen: breast cancer BT-549; assay type: cell-based, human
LOX IMVI = assay: NCI-60 SRB screen: melanoma LOX IMVI; assay type: cell-based, human
ACHN = assay: NCI-60 SRB screen: renal cancer ACHN; assay type: cell-based, human
TK-10 = assay: NCI-60 SRB screen: renal cancer TK-10; assay type: cell-based, human
UACC-62 = assay: NCI-60 SRB screen: melanoma UACC-62; assay type: cell-based, human
A549/ATCC = assay: NCI-60 SRB screen: non-small cell lung cancer A549/ATCC; assay type: cell-based, human
Renal Cancer subpanel = assay: NCI-60 screen, subpanel Renal Cancer
SF-539 = assay: NCI-60 SRB screen: CNS cancer SF-539; assay type: cell-based, human
CAKI-1 = assay: NCI-60 SRB screen: renal cancer CAKI-1; assay type: cell-based, human
UO-31 = assay: NCI-60 SRB screen: renal cancer UO-31; assay type: cell-based, human
RXF 393 = assay: NCI-60 SRB screen: renal cancer RXF 393; assay type: cell-based, human
MALME-3M = assay: NCI-60 SRB screen: melanoma MALME-3M; assay type: cell-based, human
[2] = read-out: Percentage Cell Growth

Compound: C=C(C)[C@@H]1CC[C@]2(C(N)=O)CC[C@]3(C)[C@H](CC[C@@H]4[C@@]5(C)CC[C@H](O)C(C)(C)[C@@H]5CC[C@]43C)[C@@H]12 [Compound 5]
- GI50 (HL-60(TB)): 3.59 µM
- activity at 10 µM (HL-60(TB); [2]): 1.17%
- GI50 (KM12; Homo sapiens, KM12, 48 h): 3.2 µM
- Percentage Cell Growth (KM12; KM12, single dose 10 µM): −63.59%
- GI50 (OVCAR-8; Homo sapiens, OVCAR-8, 48 h): 3.12 µM
- Percentage Cell Growth (OVCAR-8; OVCAR-8, single dose 10 µM): −64.82%
- GI50 (SK-OV-3; Homo sapiens, SK-OV-3, 48 h): 8.18 µM
- Percentage Cell Growth (SK-OV-3; SK-OV-3, single dose 10 µM): −45.72%
- MID b, average sensitivity of all cell line of particular subpanel (NSCL cancer subpanel): 2.79 µM
- Selectivity, ratio MID a: MID b (NSCL cancer subpanel): 1.32
- Percentage Cell Growth (HCT-15; HCT-15, single dose 10 µM): 6.36%
- GI50 (HCT-15; Homo sapiens, HCT-15, 48 h): 3.28 µM
- cancer cell lethality, range of percentage growth ([1]; cell lines with negative growth): −1.70% to −100%
- cases of cancer cell lethality ([1]; number of cell lines): 49
- MID b, average sensitivity of all cell line of particular subpanel (CNS cancer subpanel): 3.23 µM
- Selectivity, ratio MID a: MID b (CNS cancer subpanel): 1.14
- Percentage Cell Growth (HS 578T; HS 578T, single dose 10 µM): −1.70%
- GI50 (HS 578T; Homo sapiens, Hs-578T, 48 h): 5.74 µM
- GI50 (MDA-MB-468; Homo sapiens, MDA-MB-468, 48 h): 1.97 µM
- GI50 (MDA-MB-468): 3.2 µM
- Percentage Cell Growth (MDA-MB-468; single dose 10 µM): −56.03%
- MID b, average sensitivity of all cell line of particular subpanel (Breast cancer subpanel): 3.73 µM
- Selectivity, ratio MID a: MID b (Breast cancer subpanel): 0.98
- GI50 (MCF7): 2.91 µM
- activity at 10 µM (MCF7; [2]): -12.5%
- GI50 (HT29): 2.56 µM
- activity at 10 µM (HT29; [2]): -49.5%
- MID b, average sensitivity of all cell line of particular subpanel (Colon Cancer subpanel): 3.21 µM
- Selectivity, ratio MID a: MID b (Colon Cancer subpanel): 1.14
- GI50 (SR): 4.14 µM
- activity at 10 µM (SR; [2]): 15.5%
- GI50 (SNB-19; Homo sapiens, SNB-19, 48 h): 4.57 µM
- Percentage Cell Growth (SNB-19; SNB-19, single dose 10 µM): 1.30%
- GI50 (IGROV1; Homo sapiens, IGROV-1, 48 h): 3.32 µM
- Percentage Cell Growth (IGROV1; IGROV1, single dose 10 µM): −58.08%
- GI50 (SF-268; Homo sapiens, SF-268, 48 h): 4.34 µM
- Percentage Cell Growth (SF-268; SF-268, single dose 10 µM): 4.41%
- GI50 (NCI-H322M; Homo sapiens, 48 h): 2.59 µM
- Percentage Cell Growth (NCI-H322M; single dose 10 µM): −58.91%
- GI50 (UACC-257; Homo sapiens, UACC-257, 48 h): 13.2 µM
- Percentage Cell Growth (UACC-257; UACC-257, single dose 10 µM): −6.08%
- GI50 (NCI-H460): 2.12 µM
- activity at 10 µM (NCI-H460; [2]): -37.5%
- GI50 (SK-MEL-2; Homo sapiens, SK-MEL-2, 48 h): 7.63 µM
- Percentage Cell Growth (SK-MEL-2; SK-MEL-2, single dose 10 µM): −31.18%
- GI50 (SF-295; Homo sapiens, SF-295, 48 h): 3.39 µM
- Percentage Cell Growth (SF-295; SF-295, single dose 10 µM): −57.70%
- Percentage Cell Growth (COLO 205; COLO 205, single dose 10 µM): −66.21%
- GI50 (COLO 205; Homo sapiens, COLO 205, 48 h): 3.63 µM
- GI50 (M14; Homo sapiens, M14, 48 h): 6.05 µM
- Percentage Cell Growth (M14; M14, single dose 10 µM): 8.80%
- Percentage Cell Growth (BT-549; BT-549, single dose 10 µM): −21.60%
- GI50 (BT-549; Homo sapiens, BT-549, 48 h): 3.99 µM
- GI50 (LOX IMVI; Homo sapiens, 48 h): 1.77 µM
- Percentage Cell Growth (LOX IMVI; single dose 10 µM): −72.80%
- GI50 (ACHN; Homo sapiens, 48 h): 2.44 µM
- Percentage Cell Growth (ACHN; single dose 10 µM): −80.29%
- GI50 (TK-10; Homo sapiens, TK-10, 48 h): 2.79 µM
- Percentage Cell Growth (TK-10; TK-10, single dose 10 µM): −69.84%
- GI50 (UACC-62; Homo sapiens, UACC-62, 48 h): 4.2 µM
- Percentage Cell Growth (UACC-62; UACC-62, single dose 10 µM): −23.23%
- Percentage Cell Growth (A549/ATCC; A549/ATCC, single dose 10 µM): −69.33%
- GI50 (A549/ATCC; Homo sapiens, A549, 48 h): 2.11 µM
- MID b, average sensitivity of all cell line of particular subpanel (Renal Cancer subpanel): 3.53 µM
- Selectivity, ratio MID a: MID b (Renal Cancer subpanel): 1.04
- GI50 (SF-539; Homo sapiens, SF-539, 48 h): 1.78 µM
- Percentage Cell Growth (SF-539; SF-539, single dose 10 µM): −70.46%
- Percentage Cell Growth (CAKI-1; CAKI-1, single dose 10 µM): −64.30%
- GI50 (CAKI-1; Homo sapiens, CAKI-1, 48 h): 1.98 µM
- GI50 (UO-31; Homo sapiens, UO-31, 48 h): 1.72 µM
- Percentage Cell Growth (UO-31; UO-31, single dose 10 µM): −100.00%
- GI50 (RXF 393; Homo sapiens, RXF 393, 48 h): 2.1 µM
- Percentage Cell Growth (RXF 393; RXF 393, single dose 10 µM): −49.35%
- GI50 (MALME-3M; Homo sapiens, Malme-3M, 48 h): 2.39 µM
- Percentage Cell Growth (MALME-3M; MALME-3M, single dose 10 µM): −57.05%
